Laboratory results published in patent US6218406A, “Farnesyl transferase inhibitors, their preparation, the pharmaceutical compositions which contain them and their use in the preparation of medicaments” (Aventis Pharma S.A., priority 1996, dated 2001).
Like-named read-outs stand apart in the source and are kept apart here.

Target: farnesyl transferase (Homo sapiens, UniProt P49354+P49356)
Assay: Farnesyl transferase inhibition, [3H]-farnesylation of biotinylated K-ras C-terminal peptide (SPA assay)
Type: biochemical
Conditions: 60 min at 37° C., mean of two IC50 values
Method: The farnesyl transferase activity was measured by the amount farnesylated of K-ras substrate or of substrate derived from the peptide corresponding to its C-terminal part, the farnesyl group being introduced by farnesyl pyrophosphate (FPP).
It was then brought into contact with PVT-streptavidin (Amersham)® beads and was quantified by proximity scintillation (SPA assay) between the tritium and the PVT beads, by virtue of the streptavidin/biotin interaction.
Experimentally, farnesyl transferase purified according to the appended protocol was diluted, for this assay, to a concentration such that a consumption of substrates of less than 30% was obtained.
The reaction, carried out in Optiplates 96° microtitration plates, was initiated by the enzyme and lasted sixty minutes at 37° C. It was stopped by addition of 150 μl of mixture of a blocking buffer at pH 4 composed of 0.2M H3 PO4, 1.5 mM MgCl2, 0.5% (w/v) BSA, 0.05% (w/v) sodium azide containing 200 μg of PVT-streptavidin beads.
After slow agitation for thirty minutes (in order to remove the chemiluminescence), the plates were read as [^3 H]CPM in a Top Count® (Packard) scintillation counter for microplates, where they were converted into [^3 H]DPM from a range of coloured agent attenuating the scintillation (quenching).
The percentages of inhibition were calculated with respect to an inhibitor-free control after subtraction from all the values of that of a blank which only contained the substrates and the buffer.
The IC50 values were calculated or measured, from the inhibitions obtained at nine different concentrations, with Enzfitter® or Grafit® software. The IC50 values which appear in the results are the mean of measurements and calculations of two IC50 values.

[1] = K-Ras substrate, read-out: In vitro inhibitory activity (K-Ras) IC50

Row | Structure (SMILES) | IC50 [1] | IC50 (In vitro inhibitory activity (K-Ras) IC50, K-Ras substrate)
1 | C=C(C(=O)N1C[C@@H]2[C@]3(c4ccc(C)cc4)CC[C@@H](c4ccccc43)[C@]2(C(=O)OC)C1)c1ccccc1OC (racemic) [Example 1, methyl (3aRS,4SR,9SR,9aRS)-4,9-ethano-2-[2-(2-methoxyphenyl)propenoyl]-9-(4-methylphenyl)-2,3,3a,4,9,9a-hexahydro-1H-benzo[f]isoindole-3a-carboxylate] | 305 nM | 
2 | COc1ccccc1CC(=O)N1C[C@@H]2[C@]3(c4cc(C)c(C)c(C)c4)CC[C@@H](c4ccccc43)[C@]2(C(=O)O)C1 (racemic) [Example 37, (3aRS,4SR,9SR,9aRS)-4,9-ethano-2-[(2-methoxyphenyl)acetyl]-9-(3,4,5-trimethylphenyl)-2,3,3a,4,9,9a-hexahydro-1H-benzo[f]isoindole-3a-carboxylic Acid] | 88 nM | 
3 | C=C(C(=O)N1C[C@@H]2[C@]3(c4ccc(C)cc4)CC[C@@H](c4c(OC)cccc43)[C@]2(C(=O)O)C1)c1ccccc1OC (racemic) [Example 99, (3aRS,4SR,9SR,9aRS)-4,9-ethano-5-methoxy-2-[2-(2-methoxyphenyl)propenoyl]-9-(4-methylphenyl)-2,3,3a,4,9,9a-hexahydro-1H-benzo[f]isoindole-3a-carboxylic Acid] | 18 nM | 
4 | COc1ccccc1CC(=O)N1C[C@H]2[C@@]3(c4cccc(C)c4)CC[C@H](c4ccccc43)[C@@]2(C(=O)O)C1 (relative stereo) [Example 9, (3aRS,4SR,9SR,9aRS)-4,9-ethano-2-[(2-methoxyphenyl)acetyl]-9-(3-methylphenyl)-2,3,3a,4,9,9a-hexahydro-1H-benzo[f]isoindole-3a-carboxylic Acid] |  | 55 nM
5 | C=C(C(=O)N1C[C@H]2[C@@]3(c4ccc(C)cc4)CC[C@H](c4ccccc43)[C@@]2(C(=O)NCc2ccccc2)C1)c1ccccc1OC (relative stereo) [Example 13, (3aRS,4SR, 9SR,9aRS)-3a-N-benzylcarbamoyl-4,9-ethano-2-[2-(2-methoxyphenyl)propenoyl]-9-(4-methylphenyl)-2,3,3a,4,9,9a-hexahydro-1H-benzo[f]isoindole] | 140 nM | 
6 | C=C(C(=O)N1C[C@@H]2[C@]3(c4cccc(Br)c4)CC[C@@H](c4ccccc43)[C@]2(C(=O)OC)C1)c1ccccc1OC (racemic) [Example 83, methyl (3aRS,4SR,9SR,9aRS)-9-(3-bromophenyl)-4,9-ethano-2-[2-(2-methoxyphenyl)propenoyl]-2,3,3a,4,9,9a-hexahydro-1H-benzo[f]isoindole-3a-carboxylate] | 319 nM | 
7 | C=C(C(=O)N1C[C@H]2[C@@]3(c4ccc(C)cc4)CC[C@H](c4ccccc43)[C@@]2(C(=O)NCc2ccc[n+]([O-])c2)C1)c1ccccc1OC (relative stereo) [Example 26, (3aRS,4SR,9SR,9aRS)-4,9-ethano-2-[2-(2-methoxyphenyl)-propenoyl]-9-(4-methylphenyl)-2,3,3a,4,9,9a-hexahydro-1H-benzo[f]isoindole-3a-N-(N-oxo-3-pyridyl)methylcarboxamide] | 145 nM | 
8 | C=C(C(=O)N1C[C@@H]2[C@@]3(c4ccc(C)cc4)CC[C@@H](c4ccccc43)[C@]2(C(=O)O)C1)c1ccccc1OC (racemic) [Example 2, (3aRS,4SR,9RS,9aRS)-4,9-ethano-2-[2-(2-methoxyphenyl)propenoyl]-9-(4-methylphenyl)-2,3,3a,4,9,9a-hexahydro-1H-benzo[f]isoindole-3a-carboxylic Acid] | 45 nM | 
9 | C=C(C(=O)N1C[C@@H]2[C@]3(c4ccc(C)cc4)CC[C@@H](c4c(OC)cccc43)[C@]2(C(=O)OC)C1)c1ccccc1OC (racemic) [Example 98, methyl (3aRS,4SR,9SR,9aRS)-4,9-ethano-5-methoxy-2-[2-(2-methoxyphenyl)propenoyl]-9-(4-methylphenyl)-2,3,3a,4,9,9a-hexahydro-1H-benzo[f]isoindole-3a-carboxylate] | 663 nM | 
10 | C=C(C(=O)N1C[C@@H]2[C@]3(c4ccc(OC)c(O)c4)CC[C@@H](c4ccccc43)[C@]2(C(=O)O)C1)c1ccccc1OC (racemic) [Example 97, (3aRS,4SR,9SR,9aRS)-4,9-ethano-9-(3-hydroxy-4-methoxyphenyl)-2-[2-(2-methoxyphenyl)propenoyl]-2,3,3a,4,9,9a-hexahydro-1H-benzo[f]isoindole-3a-carboxylic Acid] | 40 nM | 
11 | C=C(C(=O)N1C[C@@H]2[C@]3(c4ccc5c(c4)CCO5)CC[C@@H](c4ccccc43)[C@]2(C(=O)OC)C1)c1ccccc1OC (racemic) [Example 61, methyl (3aRS,4SR,9SR,9aRS)-9-(2,3-dihydrobenzofuran-5-yl)-4,9-ethano-2-[2-(2-methoxyphenyl)propenoyl]-2,3,3a,4,9,9a-hexahydro-1H-benzo[f]isoindole-3a-carboxylate] | 178 nM | 
12 | C=C(C(=O)N1C[C@@H]2[C@]3(c4ccc5c(c4)OCCO5)CC[C@@H](c4ccccc43)[C@]2(C(=O)NCc2cccnc2)C1)c1ccccc1OC (single isomer, unassigned) [Example 35, levorotatory enantiomer of (3aRS,4SR,9SR,9aRS)-9-(2,3-dihydro-1,4-benzodioxin-6-yl)-4,9-ethano-2-[2-(2-methoxyphenyl)propenoyl]-2,3,3a,4,9,9a-hexahydro-1H-benzo[f]isoindole-3a-N-(3-pyridylmethyl)carboxamide] | 84 nM | 
13 | C=C(C(=O)N1C[C@@H]2[C@]3(c4ccc(CC)cc4)CC[C@@H](c4ccccc43)[C@]2(C(=O)O)C1)c1ccccc1OC (racemic) [Example 60, (3aRS,4SR,9SR,9aRS)-4,9-ethano-9-(4-ethylphenyl)-2-[2-(2-methoxyphenyl)propenoyl]-2,3,3a,4,9,9a-hexahydro-1H-benzo[f]isoindole-3a-carboxylic Acid] | 124 nM | 
14 | C=C(C(=O)N1C[C@H]2[C@@]3(c4ccc(N(C)C)cc4)CC[C@H](c4ccccc43)[C@@]2(C(=O)OC)C1)c1ccccc1OC (relative stereo) [Example 94, methyl (3aRS,4SR,9SR,9aRS)-9-(4-N,N-dimethylaminophenyl)-4,9-ethano-2-[2-(2-methoxyphenyl)propenoyl]-2,3,3a,4,9,9a-hexahydro-1H-benzo[f]-isoindole-3a-carboxylate] | 557 nM | 
15 | C=C(C(=O)N1C[C@H]2[C@@]3(c4ccc(C)cc4)CC[C@H](c4ccccc43)[C@@]2(C(=O)NNc2ccccc2)C1)c1ccccc1OC (relative stereo) [Example 23, (3aRS,4SR,9SR,9aRS)-4,9-ethano-2-[2-(2-methoxyphenyl)propenoyl]-9-(4-methylphenyl)-2,3,3a,4,9,9a-hexahydro-1H-benzo[f]isoindole-3a-N'-phenylcarbohydrazide] | 277 nM | 
16 | C=C(C(=O)N1C[C@@H]2[C@]3(c4ccc(C)cc4)CC[C@@H](c4ccccc43)[C@]2(C(=O)NOC)C1)c1ccccc1OC (racemic) [Example 21, Methyl (3aRS,4SR,9SR,9aRS)-4,9-ethano-2-[2-(2-methoxyphenyl)propenoyl]-9-(4-methylphenyl)-2,3,3a,4,9,9a-hexahydro-1H-benzo[f]isoindole-3a-hydroxamate] | 111 nM | 
17 | C=C(C(=O)N1C[C@@H]2[C@]3(c4cccc(C#N)c4)CC[C@@H](c4ccccc43)[C@]2(C(=O)OC)C1)c1ccccc1OC (racemic) [Example 96, methyl (3aRS,4SR,9SR,9aRS)-9-(3-cyanophenyl)-4,9-ethano-2-[2-(2-methoxyphenyl)propenoyl]-2,3,3a,4,9,9a-hexahydro-1H-benzo[f]isoindole-3a-carboxylate] | 955 nM | 
18 | C=C(C(=O)N1C[C@H]2[C@@]3(c4ccc(C)cc4)CC[C@H](c4ccccc43)[C@@]2(C(=O)NCc2cccnc2)C1)c1ccccc1OC (single isomer, unassigned) [Example 19, Levorotatory Enantiomer of (3aRS,4SR,9SR,9aRS)-4,9-ethano-2-[2-(2-methoxyphenyl)propenoyl]-9-(4-methylphenyl)-2,3,3a,4,9,9a-hexahydro-1H-benzo[f]isoindole-3a-N-(3-pyridylmethyl)carboxamide] | 181 nM | 
19 | C=C(C(=O)N1C[C@H]2[C@@]3(c4ccc(C)cc4)CC[C@H](c4ccccc43)[C@@]2(C(=O)NCc2cccnc2)C1)c1ccccc1OC (relative stereo) [Example 17, (3aRS,4SR,9SR,9aRS)-4,9-ethano-2-[2-(2-methoxyphenyl)propenoyl]-9-(4-methylphenyl)-2,3,3a,4,9,9a-hexahydro-1H-benzo[f]isoindole-3a-N-(3-pyridylmethyl)carboxamide] | 235 nM | 
20 | C=C(C(=O)N1C[C@@H]2[C@]3(c4ccc(OC)cc4)CC[C@@H](c4ccccc43)[C@]2(C(=O)OC)C1)c1ccccc1OC (racemic) [Example 73, methyl (3aRS,4SR,9SR,9aRS)-4,9-ethano-9-(4-methoxyphenyl)-2-[2-(2-methoxyphenyl)propenoyl]-2,3,3a,4,9,9a-hexahydro-1H-benzo[f]isoindole-3a-carboxylate] | 460 nM | 
